In patent US20250319053A1, “INHIBITORS OF THE PEPTIDYL-PROLYL CIS/TRANS ISOMERASE (PIN1), COMBINATIONS AND USES THEREOF” (DANA-FARBER CANCER INSTITUTE, INC., priority 2021, published 2025):

What was measured:
Type in all cases: cell-based
Pin1 [1] = target: T1, Pin1 (Homo sapiens, UniProt Q13526); test: Immunoblotting for Pin1 and substrate oncoproteins in PDAC cells; design: endogenous in cells; host or cells: primary human patient-derived PDAC cells (PDAC1, PDAC2); conditions: 72 hrs
Description: (§1) Cultured cells were lysed in RIPA buffer (50 mM Tris-HCl, pH 7.2, 150 mM NaCl, 1% NP40, 0.1% sodium dodecyl sulfate (SDS), 0.25% Na-deoxycholate) with freshly added phosphatase inhibitors containing 5 mM NaF and 0.2 mM sodium orthovanadate (NA3VO4), and proteinase inhibitors containing 2 μg/mL Aprotinin, 2 μg/mL Leupeptin, 2 μg/mL Pepstatin A, 1 mM DTT (dithiothreitol), 0.5 mM 4-(2-aminoethyl)-benzenesulfonyl fluoride (AEBSF), and 20 mM Chymotrypsin, and then mixed with the SDS sample buffer and loaded onto a gel after boiling for 10 minutes at 95° C. The proteins were resolved by polyacrylamide gel electrophoresis and transferred to PVDF membrane. The transferred membrane was washed three times with Tris-buffered saline containing 0.1% Tween 20 (TBST). After blocking with TBST containing 5% milk or 3% bovine serum albumin (BSA) for 1 h room temperature, the membrane was incubated with the appropriate primary antibody (diluted 1:500-1:10000) in 5% milk or 3% BSA-containing TBST at 4° C. overnight. After incubation with the primary antibody, the membrane was washed three times with TBST for a total of 30 min followed by incubation with horseradish peroxidase conjugated goat anti-rabbit or anti-mouse IgG (diluted 1:5000) for 1 h at room temperature. After three extensive washes with TBST for a total of 30 min, the immunoblots were visualized by enhanced chemi-luminescence. Immunoblotting results were quantified using ImageJ (NIH).

[2] = system: human PDAC cells (PDAC1 and PDAC2); test: Cell proliferation assay (CellTiter-Glo) in PDAC cells; conditions: 72 hrs
Description: (§2) Cells were seeded at a density of 5000 cells (PDAC1 and PDAC2), or 3000 cells (CAF1 and CAF2) per well in 96-well flat-bottomed plates and incubated for 24 h in culture medium. […] Control cells received dimethyl sulfoxide (DMSO) at a concentration equal to that of drug-treated cells for 72 hours. The cell viability was determined by CellTiter-Glo® 2.0 Assay (Promega) following the manufacturer's instructions.

human PDAC organoids = test: Organoid apoptosis assay, co-culture with activated human PBMCs; conditions: Pin1i−2 at 5 μM 3 days, αPD1 at 200 μg/mL for 40 hrs
Description: For assaying the effects of Pin1 inhibition on anti-PD1 or PDL1 sensitivity, organoids and PBMCs were co-culture as described previously (Dijkstra et al., 2018; Jiao et al., 2017). […] Human PBMCs (Precision for Medicine) were stimulated by PDAC organoid culture media, and 8.0×10^4 PBMCs were incubated with 2 pl CD3/28 beads (11161D, GIBCO) and 30 U recombinant IL-2 (200-02, Peprotech) per well in 96-well plates for 24 hours before starting co-culture. […] At the start of co-culture, a green-fluorescent caspase 3/7 probe reagent (R37111, Invitrogen) and Hoechst (135102, Invitrogen) were added to visualize cells undergoing apoptosis. Apoptotic organoids were monitored by live-cell time lapse imaging was started 2 hours after the start of co-culture using BZ-X800 fluorescence microscope (KEYENCE) and quantified using BZ-X800 analyzer (ver. 1.1.1.8, KEYENCE). […] Synergy scores were calculated by Synergyfinder ver 2 (synergyfinder.fimm.fi/) (Ianevski et al., Nucleic Acids Res. 48 IW1), […]-[…] (2020)).

[3] = system: primary human CAFs (CAF1 and CAF2); test: Cell proliferation assay (CellTiter-Glo) in CAFs; conditions: 72 hrs
Description: as §2

Pin1 [4] = target: T1, Pin1; test: Immunoblotting for Pin1 and substrate oncoproteins in CAFs; design: endogenous in cells; conditions: 72 hrs
Description: as §1, with “After incubation with the primary antibody, the membrane was washed three times with TBST for a total of 30 min followed by incubation with horseradish peroxidase conjugated goat anti-rabbit or anti-mouse IgG (diluted 1:5000) for 1 h at room temperature.” left out

T1 sequence (Q13526 whole entry): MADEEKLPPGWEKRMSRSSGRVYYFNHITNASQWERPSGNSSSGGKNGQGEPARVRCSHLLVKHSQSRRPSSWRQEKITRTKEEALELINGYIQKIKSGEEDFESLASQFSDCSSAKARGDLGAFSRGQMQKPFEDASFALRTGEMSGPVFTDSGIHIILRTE

**Q.** Which results are given for `CC(C)(C)CN(C(=O)CCl)C1CCS(=O)(=O)C1` (stereo not drawn) [Pin1i−2, sulfopin]?
**A.** Pin1 and its substrate oncoproteins (IB) (Pin1 [1]): ablate Pin1; cell growth (proliferation assay) ([2]; PDAC cells): dose-dependently suppress cell growth; Pin1 KO cell growth ([2]; Pin1-KO PDAC2 cells): fails to suppress Pin1 KO cell growth; apoptosis of WT organoids (human PDAC organoids): promoted the apoptosis of WT organoids; CAF proliferation (cell growth) [3]: suppression of CAF proliferation; Pin1 and its substrate oncoproteins (IB) (Pin1 [4]): dose-dependently reduced Pin1 and its many substrate oncoproteins
